Test results from patent US20140051762A1, “POLYCATIONIC COMPOUNDS AND USES THEREOF” (priority 2004, published 2014).
“And” between values parts separate entries of the source, which are not always exact repeats. Identical values can stand only once.

Key:
Factor Xa [1] = assay: anti-heparin assay, % Factor Xa inhibition at single concentration (chromogenic substrate S-2765); type: biochemical; conditions: Single concentration (10 ug/ml)
Experimental: (§1) The following example illustrates the heparin antagonistic effects of polycationic compounds of the present invention. To determine the anti-heparin activity of the polycationic compounds an assay measuring the percent inhibition using a fixed concentration of polycationic compound or concentrations of polycationic compounds causing lysis of 50% of human red blood cells were conducted.
(§2) 10 IU of anti-thrombin was dissolved in 10 ml of buffer, resulting in a 1 IU/ml stock solution (250×) of the anti-thrombin. The 1 IU/ml (250×) stock solution of anti-thrombin and a 336 mM stock solution of NaCl were diluted into a total volume of 50 μl buffer so that the final anti-thrombin concentration was 0.004 IU/sample well and the NaCl was 150 mM/sample well. 1 μl of the compound to be tested, final concentration 10 μg/ml (corresponding to 0.5 logarithmic antagonist dilution) is added to the sample well. The samples are mixed and allowed to incubate at room temperature for 20 minutes. 50 μl of factor Xa dissolved in buffer is added to the sample well to a final concentration of 0.14 knat/well (2 μl of the 7.1 kna/1 ml stock solution to a final sample well buffer volume of 100 μl). The samples were mixed and further incubated at room temperature for 10 minutes. 10 μl of a 4 mM stock solution of the substrate S-2765 was added to each sample well for a final concentration of 0.4 mM in each sample well. The samples were mixed and hydrolyses of the chromogenic substrate Z-D-Arg-Gly-Arg-pNA (S-2765), thus liberating the chromophoric group pNA (p-nitroaniline), was monitored at 405 nm. The samples were mixed every 30 seconds to maintain a uniform mixture. ThermoLabsystems Multiskan Spectrum spectrophotometer was used to measure the absorbance spectrums. The increase in absorbance was proportional to the enzyme (factor Xa) activity. The % inhibition of factor Xa was determined using a standard curve.

Factor Xa [2] = assay: Factor Xa inhibition EC50 (fixed heparin concentrations, different amounts of heparin antagonist); type: biochemical; conditions: read-out: FactorXa Inhibition: EC50
Experimental: as §1, §2
(§3) Factor Xa Inhibition: EC50. To determine the concentration of polycationic compound that causes about 50% […], fixed heparin concentrations were used and different amounts of heparin antagonists were added.

human red blood cells = assay: lysis of 50% of human red blood cells (HC50); type: cell-based
Experimental: as §1, §3

heparin = assay: effect on coagulation time and heparin efficacy
Experimental: The following example illustrates the effect of a polycationic compound of the present invention on coagulation time. The anti-heparin assay as described herein was used. The assay contained either 1 mg/L, 2 mg/L or 4 mg/I of heparin and increasing amounts of Compound 26 was added.

[3] = tested on: FGF2-induced angiogenesis in the CAM model; assay: FGF2-induced angiogenesis in the chick chorioallantoic membrane (CAM) model; type: in vivo, chick embryo; conditions: for % inhibition ± SEM / Branch pts ± SEM: Table 3; for Mean % inhibition ± SEM: Table 4, n = 8
Experimental: The following example illustrates the anti-angiogenic effect of exemplary polycationic compounds of the present invention. Ten-day old embryos were purchased from Spafas, Inc. (Preston, Conn.) and were incubated at 37° C. with 55% relative humidity. In the dark with the help of a candling lamp, a small hole was punctured in the shell concealing the air sac with a hypodermic needle. A second hole was punctured in the shell on the broadside of the egg directly over an avascular portion of the embryonic membrane, as observed during candling. A false air sac was created beneath the second hole by the application of negative pressure to the first hole, which caused the chorioallantoic membrane (CAM) to separate from the shell. A window, approximately 1.0 cm^2, was cut in the shell over the dropped CAM with the use of a small crafts grinding wheel (Dremel, Division of Emerson Electric Company Racine, Wis.) which allowed direct access to the underlying CAM. Filter disks of #1 filter paper (Whatman International, United Kingdom) were soaked in 3 mg/mL cortisone acetate (Sigma, St. Louis, Mo.) in a solution of 95% ethanol and water and subsequently air dried under sterile conditions. FGF2 (Life Technologies, Gaithersburg, Md.) was used to grow vessels on the CAMs of 10 day old chick embryos. Sterile filter disks adsorbed with FGF2 dissolved in PBS at 1μg/mL were placed on growing CAMs. […] At 24 h, test compounds or control vehicle was added directly to CAM topically.
CAM tissue directly beneath FGF2-saturated filter disk was resected from embryos treated 48 hours prior with test compound or control. Tissues were washed three times with PBS. Sections were placed in a 35-mm petri dish (Nalgen Nunc, Rochester, N.Y.) and examined under a SV6 stereomicroscope (Karl Zeiss, Thornwood, N.Y.) at 50× magnification. Digital images of CAM sections adjacent to filters were collected using a 3-CCD color video camera system (Toshiba America, New York, N.Y.) and analyzed using Image-Pro Plus software (Media Cybernetics, Silver Spring, Md.). Table 4 contains the number of vessel branch points contained in a circular region equal to the area of a filter disk counted for each section.
CAM tissue directly beneath FGF2-saturated filter disk was resected from embryos treated 48 h prior with compound or control. Tissues were washed three times with PBS. Sections were placed in a 35-mm petri dish (Nalge Nunc, Rochester, N.Y.) and examined under a SV6 stereomicroscope (Karl Zeiss, Thornwood, N.Y.) at 50× magnification. Digital images of CAM sections adjacent to filters were collected using a 3-CCD color video camera system (Toshiba America, New York, N.Y.) and analyzed with the Image-Pro Plus software (Media Cybernetics, Silver Spring, Md.).

[4] = Heparin 1 mg/L, Compound 26 1.25 mg/L
[5] = Heparin 1 mg/L, Compound 26 2 mg/L
[6] = Heparin 1 mg/L, Compound 26 2.5 mg/L
[7] = Heparin 1 mg/L, Compound 26 4 mg/L
[8] = Heparin 2 mg/L, Compound 26 2.5 mg/L
[9] = Heparin 2 mg/L, Compound 26 4 mg/L
[10] = Heparin 2 mg/L, Compound 26 5 mg/L
[11] = Heparin 2 mg/L, Compound 26 6 mg/L
[12] = Heparin 2 mg/L, Compound 26 10 mg/L
[13] = Heparin 4 mg/L, Compound 26 2.5 mg/L
[14] = Heparin 4 mg/L, Compound 26 4 mg/L
[15] = Heparin 4 mg/L, Compound 26 5 mg/L
[16] = Heparin 4 mg/L, Compound 26 6 mg/L
[17] = Heparin cell empty (4 mg/L from line above), Compound 26 10 mg/L

CC(C)(C)c1cc(NC(=O)c2cccc(C(=O)Nc3cc(C(C)(C)C)cc(NC(=O)[C@H](N)CCCNC(=N)N)c3SCCN)c2)c(SCCN)c(NC(=O)[C@H](N)CCCNC(=N)N)c1 [Compound 7]
% FactorXa Inhibition (Factor Xa [1]): 5.506%
EC50 (Factor Xa [2]): 3.7 µM
HC50 (human red blood cells): 715 μg/ml and 519 μM

NCCOc1cc(OCCN)c(C(=O)Nc2cccc(N)c2SCCN)cc1C(=O)Nc1cccc(N)c1SCCN [Compound 25]
% FactorXa Inhibition (Factor Xa [1]): 0%
EC50 (Factor Xa [2]): 5.3 µM
HC50 (human red blood cells): >2,000 μg/ml

N=C(N)NCCC[C@@H](N)C(=O)Nc1cccc(NC(=O)c2cc(C(=O)Nc3cccc(NC(=O)[C@H](N)CCCNC(=N)N)c3SCCN)c(OCCN)cc2OCCN)c1SCCN [Compound 26]
Coagulation Time (heparin; [4]): 42.8 s
Heparin Efficacy (heparin; [4]): 0.6506
Coagulation Time (heparin; [5]): 33.4 s
Heparin Efficacy (heparin; [5]): 0.2402
Coagulation Time (heparin; [6]): 31.3 s
Heparin Efficacy (heparin; [6]): 0.1485
Coagulation Time (heparin; [7]): 27.9 s
Heparin Efficacy (heparin; [7]): −1.67E−08
Coagulation Time (heparin; [8]): 40.2 s
Heparin Efficacy (heparin; [8]): 0.1108
Coagulation Time (heparin; [9]): 33.9 s
Heparin Efficacy (heparin; [9]): 0.03149
Coagulation Time (heparin; [10]): 31.9 s
Heparin Efficacy (heparin; [10]): 0.006297
Coagulation Time (heparin; [11]): 31.8 s
Heparin Efficacy (heparin; [11]): 0.005038
Coagulation Time (heparin; [12]): 34.4 s
Heparin Efficacy (heparin; [12]): 0.03778
Coagulation Time (heparin; [13]): 124.8 s
Heparin Efficacy (heparin; [13]): 0.513
Coagulation Time (heparin; [14]): 87.4 s
Heparin Efficacy (heparin; [14]): 0.3108
Coagulation Time (heparin; [15]): 55.8 s
Heparin Efficacy (heparin; [15]): 0.14
Coagulation Time (heparin; [16]): 35.4 s
Heparin Efficacy (heparin; [16]): 0.02973
Coagulation Time (heparin; [17]): 29.9 s
Heparin Efficacy (heparin; [17]): −2.06E−09
effect on coagulation time (in words) (heparin; varying concentrations of heparin): decreased the coagulation time
% inhibition ± SEM ([3]; 1.0 ug + FGF2 (1 ug)): 55 ± 8%
Branch pts ± SEM ([3]; 1.0 ug + FGF2 (1 ug)): 123 ± 7
% FactorXa Inhibition (Factor Xa [1]): 48.14%
EC50 (Factor Xa [2]): 2 µM
HC50 (human red blood cells): >2,000 μg/ml

N=C(N)NCCOc1cc(OCCNC(=N)N)c(C(=O)Nc2cccc(N)c2SCCNC(=N)N)cc1C(=O)Nc1cccc(N)c1SCCNC(=N)N [Compound 27]
% inhibition ± SEM ([3]; 0.1 ug + FGF2 (1 ug)): 34 ± 9%
Branch pts ± SEM ([3]; 0.1 ug + FGF2 (1 ug)): 144 ± 9
% FactorXa Inhibition (Factor Xa [1]): 8.886%
EC50 (Factor Xa [2]): 9.7 µM
HC50 (human red blood cells): >2,000 μg/ml

COc1ccc(NC(=O)C(CCCNC(=N)N)NC(=O)c2cc(NC(=O)C(CCCNC(=N)N)NC(=O)c3cc(NC(=O)C(CCCNC(=N)N)NC(=O)c4cc(NC(=O)C(N)CCCNC(=N)N)ccc4OC)ccc3OC)ccc2OC)cc1C(N)=O (centres unmarked) [Compound 48]
Mean % inhibition ± SEM ([3]; 1.0 ug + FGF2 (1 ug)): 16 ± 6%
Mean % inhibition ± SEM ([3]; 3.0 ug + FGF2 (1 ug)): 38 ± 8%
Mean % inhibition ± SEM ([3]; 10 ug + FGF2 (1 ug)): 55 ± 7%
HC50 (human red blood cells): 261 μg/ml and 144 μM

COc1ccc(NC(=O)C(CCCCN)NC(=O)c2cc(NC(=O)C(CCCCN)NC(=O)c3cc(NC(=O)C(CCCCN)NC(=O)c4cc(NC(=O)C(N)CCCCN)ccc4OC)ccc3OC)ccc2OC)cc1C(N)=O (centres unmarked) [Compound 50]
Mean % inhibition ± SEM ([3]; 1.0 ug + FGF2 (1 ug)): 21 ± 9%
Mean % inhibition ± SEM ([3]; 3.0 ug + FGF2 (1 ug)): 42 ± 8%
Mean % inhibition ± SEM ([3]; 10 ug + FGF2 (1 ug)): 66 ± 7%
HC50 (human red blood cells): 637 μg/ml and 377 μM
